Results from patent publication US20090054240A1, “Heteroaroyl-substituted Alanines” (BASF SE, priority 2006, published 2009).

Tests used:
pig weed = assay: greenhouse post-emergence herbicidal test; type: in vivo, Amaranthus retroflexus; conditions: application rate 1.0 kg/ha a.s.
Excerpt: (§1) The seeds of the test plants were sown separately for each species. For the post-emergence treatment, the test plants were first grown to a height of 3 to 15 cm, depending on the plant habit, and only then treated with the active ingredients which had been suspended or emulsified in water. For this purpose, the test plants were either sown directly and grown in the same containers, or they were first grown separately as seedlings and transplanted into the test containers a few days prior to treatment. The rate of application for the post-emergence treatment was 1.0 kg/ha of a.s. (active substance). Depending on the species, the plants were kept at 10-25° C. or 20-35° C. The test period extended over 2 to 4 weeks. During this time, the plants were tended, and their response to the individual treatments was evaluated. Evaluation was carried out using a scale from 0 to 100. 100 means no emergence of the plants, or complete destruction of at least the aerial parts, and 0 means no damage, or normal course of growth. The plants used in the greenhouse experiments belonged to the following species: [table]

lambsquarters = assay: greenhouse post-emergence herbicidal test; type: in vivo, Chenopodium album; conditions: application rate 1.0 kg/ha a.s.
Excerpt: as §1

green foxtail = assay: greenhouse post-emergence herbicidal test; type: in vivo, Setaria viridis; conditions: application rate 1.0 kg/ha a.s.
Excerpt: as §1

Row | Structure (SMILES) | melting point [°C] | post-emergence action against pig weed (pig weed) | post-emergence action against lambsquarters (lambsquarters) | post-emergence action against green foxtail (green foxtail)
1 | CNC(=O)[C@H](CN)NC(=O)c1cn(C)nc1C(F)(F)F [Compound 3.6, N-[(1S)-1-(Aminomethyl)-2-(methylamino)-2-oxoethyl]-1-methyl-3-(trifluoromethyl)-1H-pyrazole-4-carboxamide] | 127 |  |  | 
2 | CNC(=O)[C@H](CNC(=O)OC)NC(=O)c1cn(C)nc1C(F)(F)F [Compound 3.10, O-Methyl N-[(2S)-3-(methylamino)-2-({[1-methyl-3-(trifluoromethyl)-1H-pyrazol-4-yl]carbonyl}amino)-3-oxopropyl]carbamate] | 205 | very good | very good | very good
3 | CNC(=O)[C@H](CNC(=O)OC(C)(C)C)NC(=O)c1cn(C)nc1C(F)(F)F [Compound 3.11, O-tert-Butyl N-[(2S)-3-(methylamino)-2-({[1-methyl-3-(trifluoromethyl)-1H-pyrazol-4-yl]carbonyl}amino)-3-oxopropyl]carbamate] | 78 |  |  | 
